Laboratory results: US20060062859A1, “Composition and method to optimize and customize nutritional supplement formulations by measuring genetic and metabolomic contributing factors to disease diagnosis, stratification, prognosis, metabolism, and therapeutic outcomes” (priority 2004, published 2006)
Where two headings read alike, the source gives them in different places. Where no end group is shown, it is not given here.

Assays:
[1] = double-blind placebo controlled; cited from earlier work
[2] = tested on: release of serotonin; conditions: long lasting and dose dependent; cited from earlier work
[3] = tested on: synaptosomal dopamine; conditions: cited from earlier work
[4] = 2 weeks; cited from earlier work
[5] = in vivo; cited from earlier work
[6] = HCA 440 mg t.i.d. eight weeks (Thom); parameters: species or system human; conditions: in vivo
Experimental: The Thom study indicates a dosage level of 440 mg of HCA (as opposed to GcE) t.i.d. (1320 mg/day) for eight weeks. […] The mean “weight loss” in the HCA group was 6.4 kg, 1.68 times greater than placebo. […] The GcE was taken in conjunction with 1200 mg L-Carnitine and 600 mcg chromium (from picolinate) and compared to placebo in 186 subjects (200 began the study) for 4 weeks. All participants were supposed to engage in an exercise regimen calibrated to personal needs. Loss of body fat in the treatment group averaged 1.29 kg compared to 0.64 kg in the placebo ([…]. The Girola study investigated the effects of chitosan, combined with a low amount of GcE, making a comparative evaluation impossible. In fact, variables in the studies noted, and others not mentioned, make conclusions about the efficacy of GcE for “weight loss” extremely difficult.

[7] = 2 g of HCA; fasting and fed subjects; cited from earlier work
[8] = 3.0 g/day for 3 days; fasting state, rest or moderate exercise; cited from earlier work
[9] = 1320 mg/day, eight weeks, 1200 kcal/day; cited from earlier work
[10] = molecular target: T1, ATP-citrate lyase (Homo sapiens, UniProt P53396); conditions: cited from earlier work
T1 sequence (P53396 1-1101): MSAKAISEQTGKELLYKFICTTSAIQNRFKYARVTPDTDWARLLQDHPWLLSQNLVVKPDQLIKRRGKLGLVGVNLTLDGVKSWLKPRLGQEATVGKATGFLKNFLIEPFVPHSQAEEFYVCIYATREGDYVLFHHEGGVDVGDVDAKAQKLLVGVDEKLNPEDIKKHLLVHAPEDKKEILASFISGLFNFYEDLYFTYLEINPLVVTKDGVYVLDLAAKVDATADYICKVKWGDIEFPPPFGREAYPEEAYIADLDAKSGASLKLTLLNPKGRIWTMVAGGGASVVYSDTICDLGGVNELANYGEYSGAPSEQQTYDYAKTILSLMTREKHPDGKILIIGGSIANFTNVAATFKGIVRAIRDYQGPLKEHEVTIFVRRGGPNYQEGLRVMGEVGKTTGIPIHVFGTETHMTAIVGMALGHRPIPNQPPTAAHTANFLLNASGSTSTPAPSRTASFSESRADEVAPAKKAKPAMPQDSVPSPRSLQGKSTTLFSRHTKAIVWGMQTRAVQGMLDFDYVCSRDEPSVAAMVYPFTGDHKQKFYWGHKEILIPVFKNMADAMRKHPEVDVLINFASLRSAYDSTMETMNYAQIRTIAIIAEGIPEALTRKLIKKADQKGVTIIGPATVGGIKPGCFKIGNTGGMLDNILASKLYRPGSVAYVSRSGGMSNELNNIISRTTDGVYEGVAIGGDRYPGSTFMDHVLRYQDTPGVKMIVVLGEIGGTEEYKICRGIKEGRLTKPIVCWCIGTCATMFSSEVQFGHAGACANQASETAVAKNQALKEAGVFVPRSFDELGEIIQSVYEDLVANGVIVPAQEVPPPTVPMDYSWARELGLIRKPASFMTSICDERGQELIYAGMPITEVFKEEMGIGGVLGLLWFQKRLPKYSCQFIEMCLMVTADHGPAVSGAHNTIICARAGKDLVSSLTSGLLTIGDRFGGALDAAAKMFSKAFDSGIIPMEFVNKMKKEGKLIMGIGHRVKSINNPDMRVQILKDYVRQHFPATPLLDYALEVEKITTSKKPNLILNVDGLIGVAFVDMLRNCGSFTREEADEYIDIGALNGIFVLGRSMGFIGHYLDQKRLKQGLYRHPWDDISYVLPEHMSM

[11] = injections; cited from earlier work
[12] = cited from earlier work; for OA pain / joint function: people with OA
[13] = molecular target: T2, D2 receptors in the Nacc (Rattus norvegicus, UniProt P61169); conditions: bilateral, nmol/side; cited from earlier work
T2 construct: from tissue; host or cells: nucleus accumbens in vivo; study cited from the literature

[14] = tested on: brain dopamine and serotonin flux; conditions: cited from earlier work
[15] = molecular target: T3, insulin receptor (IR) (Mus musculus, UniProt P15208); conditions: cited from earlier work
T3 construct: endogenous in cells; study cited from the literature

[16] = Compliance with Trexan after rapid detoxification of methadone patients; type: in vivo, human; conditions: P<0.0001
Experimental: Over the last decade, a new rapid method to detoxify either methadone or heroin addicts utilizing TrexanR sparked interest in many treatment centers throughout the United States, Canada, as well as many countries on a worldwide basis. […] It may also be interesting too further test this hypothesis with the sublingual combination of the partial opiate mu receptor agonist buprenorphrine. The ingredients tested included DL-phenylalanine (2760 mg/day), L-Glutamine (150 mg/day), chromium picolinate (360 micrograms/day), pyridoxal-5-phosphate (30 mg/day). • Most recently a study was performed by Julia Ross best selling author of The Diet Cure (Viking Press USA, 1999; Penguin UK, Au, and USA, 2000), in an outpatient clinic in Mill Valley, Calif. involving amino-acid therapy and enkephalinase inhibition based on Blum's work. […]

[17] = cited from earlier work
[18] = repeated stress; cited from earlier work
[19] = cited from earlier work; remark: listed apart in the source
[20] = Enkephalinase inhibitors in mice: brain enkephalins and alcohol preference; type: in vivo; conditions: for alcohol preference: acceptance and 14 day preference test; for brain enkephalins: d-phenylalanine 500 mg/kg/day 18 days, metabolite 25 micrograms i.c.v.
[21] = VTA / midbrain dopamine neurons; cited from earlier work
[22] = chronic treatment; cited from earlier work
[23] = direct microinjection; cited from earlier work
[24] = in vivo; cited from earlier work; remark: listed apart in the source
[25] = tested on: sweet and bitter receptors on the tongue; conditions: in vivo; cited from earlier work

T3 sequence (P15208 28-748 limits assumed): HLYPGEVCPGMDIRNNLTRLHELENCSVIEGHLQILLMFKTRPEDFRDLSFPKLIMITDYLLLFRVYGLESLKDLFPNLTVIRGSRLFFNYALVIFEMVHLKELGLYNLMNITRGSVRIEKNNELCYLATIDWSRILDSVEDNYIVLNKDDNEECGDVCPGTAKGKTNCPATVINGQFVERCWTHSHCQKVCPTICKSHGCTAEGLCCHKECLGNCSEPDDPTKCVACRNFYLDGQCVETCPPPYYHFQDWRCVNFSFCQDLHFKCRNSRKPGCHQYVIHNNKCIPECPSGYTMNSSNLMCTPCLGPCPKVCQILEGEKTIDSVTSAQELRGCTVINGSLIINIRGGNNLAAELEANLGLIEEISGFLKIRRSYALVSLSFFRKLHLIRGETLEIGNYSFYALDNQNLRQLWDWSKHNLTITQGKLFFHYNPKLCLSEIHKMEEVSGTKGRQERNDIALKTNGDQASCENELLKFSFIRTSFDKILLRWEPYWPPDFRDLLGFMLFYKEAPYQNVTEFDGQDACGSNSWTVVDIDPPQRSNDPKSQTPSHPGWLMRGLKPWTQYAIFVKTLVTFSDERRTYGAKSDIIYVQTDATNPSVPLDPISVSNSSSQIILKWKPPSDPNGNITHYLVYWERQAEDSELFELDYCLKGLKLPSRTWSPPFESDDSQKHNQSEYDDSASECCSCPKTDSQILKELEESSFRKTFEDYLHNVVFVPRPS
T3 sequence (P15208 753-1372 limits assumed): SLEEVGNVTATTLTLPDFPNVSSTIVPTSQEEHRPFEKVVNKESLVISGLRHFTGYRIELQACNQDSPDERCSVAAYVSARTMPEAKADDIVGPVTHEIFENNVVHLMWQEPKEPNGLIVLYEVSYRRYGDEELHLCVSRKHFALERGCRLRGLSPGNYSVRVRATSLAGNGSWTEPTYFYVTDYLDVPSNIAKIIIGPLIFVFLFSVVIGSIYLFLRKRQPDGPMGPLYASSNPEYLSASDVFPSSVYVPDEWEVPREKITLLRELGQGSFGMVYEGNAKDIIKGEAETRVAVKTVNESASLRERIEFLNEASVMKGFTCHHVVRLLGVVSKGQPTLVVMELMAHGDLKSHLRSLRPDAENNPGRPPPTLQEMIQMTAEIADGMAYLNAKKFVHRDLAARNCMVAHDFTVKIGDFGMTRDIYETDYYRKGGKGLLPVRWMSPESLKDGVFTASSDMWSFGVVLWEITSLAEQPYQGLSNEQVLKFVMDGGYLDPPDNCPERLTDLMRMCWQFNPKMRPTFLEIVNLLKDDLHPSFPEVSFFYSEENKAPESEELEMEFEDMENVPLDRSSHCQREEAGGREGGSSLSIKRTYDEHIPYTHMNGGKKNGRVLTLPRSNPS
T2 sequence (P61169 whole entry): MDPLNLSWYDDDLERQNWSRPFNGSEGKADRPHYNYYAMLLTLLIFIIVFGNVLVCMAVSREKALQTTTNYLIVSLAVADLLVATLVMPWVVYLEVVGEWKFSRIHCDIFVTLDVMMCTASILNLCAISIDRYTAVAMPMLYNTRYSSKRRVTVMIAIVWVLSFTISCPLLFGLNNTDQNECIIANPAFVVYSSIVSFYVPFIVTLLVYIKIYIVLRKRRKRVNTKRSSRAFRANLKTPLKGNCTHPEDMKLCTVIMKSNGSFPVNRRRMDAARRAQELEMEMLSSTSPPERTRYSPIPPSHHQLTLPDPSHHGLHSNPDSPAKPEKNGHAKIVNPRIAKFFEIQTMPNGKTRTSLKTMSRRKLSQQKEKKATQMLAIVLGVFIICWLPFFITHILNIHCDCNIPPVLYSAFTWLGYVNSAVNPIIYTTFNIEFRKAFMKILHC

NC(Cc1ccccc1)C(=O)O (racemic) [dl-phenylalanine]
psychosocial stress as measured by SCL [1]: reduces stress

N[C@@H](Cc1c[nH]c2ccc(O)cc12)C(=O)O [5-HTP, 5-hydroxy-l-tryptophan]
5-HT in dialysates [2]: immediate increase

CCn1cc(C(=O)O)c(=O)c2ccc(Cc3ccccc3)nc21 [Amfoelic acid]
release of dopamine formed from 14C-phenylalanine [3]: net release

CC(N)Cc1ccccc1 (centres unmarked) [Amphetamine]
release of dopamine formed from 14C-phenylalanine [3]: increased

CN1[C@@H]2CC[C@H]1C[C@@H](OC(c1ccccc1)c1ccccc1)C2 [Cogentin]
release of dopamine formed from 14C-phenylalanine [3]: increased

O=C(O)CC(O)(C(=O)O)C(O)C(=O)O (stereo not drawn) [HCA, (−)—Hydroxycitric acid]
satiety and energy intake compared to placebo [4]: did not increase satiety or effect energy intake
satiety [5]: no observable effects
weight loss relative to placebo [6]: 1.68 times greater than placebo
time to peak plasma levels [7]: approximately 2 hours
short-term rate of fat oxidation [8]: did not alter
mean weight loss [9]: 6.4 kg
inhibition of ATP-citrate lyase [10]: competitively inhibit
inhibition of ATP-citrate lyase ([10]; listed as FCA): competitive inhibitor

NC(Cc1ccc(Cl)cc1)C(=O)O (centres unmarked) [Para-Chlora-Phenylalanine (PCA), Para-Chlora-Phenylalanine]
induction of stress [11]: attenuated

C[S+](CC[C@H](N)C(=O)[O-])C[C@H]1O[C@@H](n2cnc3c(N)ncnc32)[C@H](O)[C@@H]1O (stereo partly drawn) [SAM-e, S-adenosyl-L-methionine]
OA pain / joint function [12]: equal to NSAIDs

Oc1cc2c(cc1O)C(c1ccccc1)CNCC2 (centres unmarked) [SKF 38393]
persistent phase of formalin-induced nociception [13]: without effect

CC(C)CC(N(C)C)C1(c2ccc(Cl)cc2)CCC1 (centres unmarked) [Sibutramine]
serotonin and dopamine concentrations in striatal and hypothalamic brain regions ([14]; higher doses): increased
serotonin and dopamine concentrations in dialysates ([14]; low doses): no effect

O=C(OC[C@H]1O[C@@H](OC(=O)c2cc(O)c(O)c(OC(=O)c3cc(O)c(O)c(O)c3)c2)[C@H](OC(=O)c2cc(O)c(O)c(OC(=O)c3cc(O)c(O)c(O)c3)c2)[C@@H](OC(=O)c2cc(O)c(O)c(OC(=O)c3cc(O)c(O)c(O)c3)c2)[C@@H]1OC(=O)c1cc(O)c(O)c(OC(=O)c2cc(O)c(O)c(O)c2)c1)c1cc(O)c(O)c(OC(=O)c2cc(O)c(O)c(O)c2)c1 [Tannic Acid]
expression of key genes for adipogenesis (PPAR-gamma 2; c-fos; c-jun and c-myc) [15]: inhibit
phosphorylation of the insulin receptor (IR) [15]: induces phosphorylation
translocation of the glucose transporter (GLUT 4) [15]: translocation

O=C1CC[C@@]2(O)[C@H]3Cc4ccc(O)c5c4[C@@]2(CCN3CC2CC2)[C@H]1O5 [Trexan]
average number of days of compliance [16]: 37 days

[Ca+2] [calcium]
lower body weight per 300 mg increment of regular intake ([17]; adults): 2.5 to 3.0 kg
weight loss compared to the placebo group ([17]; approximately 4 years of observation): significant weight loss
less body fat per 300 mg increment of regular intake ([17]; children): about 1 kg
reduction of prevalence of overweight and obesity (estimate) ([17]; increased intake): 60-80%

CN(C)CCCN1c2ccccc2CCc2ccc(Cl)cc21 [clomipramine]
development of hyperalgesia [18]: blocks

CCN[C@@H](C)Cc1cccc(C(F)(F)F)c1 [d-fenfluramine]
consumption of a sucrose solution ([19]; non-deprived rats): reduced

N[C@H](Cc1ccccc1)C(=O)O [d-phenylalanine]
alcohol preference [20]: significantly reduced
brain enkephalins [20]: brain changes of the enkephalins

CNCCC(Oc1ccc(C(F)(F)F)cc1)c1ccccc1 (centres unmarked) [fluoxitine]
development of hyperalgesia [18]: blocks
ingestion of saccharin solutions ([19]; normal rats): suppresses

N[C@H]1C(O)O[C@H](CO)[C@@H](O)[C@@H]1O (some centres unmarked) [glucosamine]
progression of the disease ([12]; knee OA, three years): slowed, if not stopped

O=C(O)CCc1ccccc1 [hydrocunnamic acid, reference compound]
alcohol preference [20]: significantly reduced
brain enkephalins [20]: brain changes of the enkephalins

CN1CC[C@]23c4c5ccc(O)c4O[C@H]2[C@@H](O)C=C[C@H]3[C@H]1C5 [morphine]
tonic pain / analgesia in the formalin test [21]: induces analgesia
food intake [22]: decreased food intake

CCCN1CCc2cccc3c2[C@H]1Cc1ccc(O)c(O)c1-3 [n-propylnor-apomorphine]
symptoms after withdrawal of opiates [23]: significantly suppresses

CCN1CCC[C@H]1CNC(=O)c1c(O)c(Cl)cc(Cl)c1OC [raclopride]
persistent phase of formalin-induced nociception [13]: blocked

N[C@@H](Cc1c[nH]c2ccccc12)C(=O)O [tryptophan]
development of hyperalgesia [18]: blocks

O=S(=O)([O-])[O-].[O]=[V+2] [vanadyl, Vanadyl sulfate]
blood sugar levels [24]: very effective in normalizing blood sugar levels

CHONDROITIN SULFATE
OA pain / joint function [12]: significant improvement in pain and inflammation and improved joint function

gurmarin
sweet taste of glucose and sucrose [25]: block

substance P (RPKPQQFFGLM; ends and bridges not checked; UniProt P20366 58-68, looked up) [SP, tachykinin neuropeptide, substance P]
tonic pain / analgesia in the formalin test [21]: inhibit tonic pain
